The experiment deals with T1, Human CARM1 (PRMT4) (Homo sapiens, UniProt Q86X55).
T1 construct: Flag-CARM1-His was eluted with 200 ug/ml FLAG peptide in buffer A; made in house; host or cells: HEK 293F cells (BacMam virus, pFastBacMam)
T1 sequence (Q86X55 with tags, fused parts or gaps isoform Q86X55-1): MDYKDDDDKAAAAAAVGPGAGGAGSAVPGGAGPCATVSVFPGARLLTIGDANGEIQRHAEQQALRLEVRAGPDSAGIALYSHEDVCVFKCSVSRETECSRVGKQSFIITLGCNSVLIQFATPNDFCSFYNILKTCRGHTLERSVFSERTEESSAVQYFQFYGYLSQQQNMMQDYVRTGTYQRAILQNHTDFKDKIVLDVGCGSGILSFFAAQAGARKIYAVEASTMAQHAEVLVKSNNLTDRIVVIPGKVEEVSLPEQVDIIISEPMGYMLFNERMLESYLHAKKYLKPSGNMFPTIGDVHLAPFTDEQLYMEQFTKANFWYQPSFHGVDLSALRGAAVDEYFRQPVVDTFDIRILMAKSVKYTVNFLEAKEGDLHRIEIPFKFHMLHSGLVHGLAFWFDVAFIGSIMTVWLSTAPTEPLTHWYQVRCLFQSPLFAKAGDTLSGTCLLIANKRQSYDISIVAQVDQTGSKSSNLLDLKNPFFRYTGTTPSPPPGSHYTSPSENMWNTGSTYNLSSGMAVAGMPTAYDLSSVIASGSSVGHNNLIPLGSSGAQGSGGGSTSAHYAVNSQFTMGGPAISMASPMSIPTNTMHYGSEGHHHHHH
The experiment is described as follows: CARM1 biochemical assay (3H-SAM Flashplate, peptide substrate). The text has this: General Materials. S-adenosylmethionine (SAM), S-adenosylhomocysteine (SAH), bicine, Tween20, dimethylsulfoxide (DMSO), bovine skin gelatin (BSG), sodium butyrate and Tris(2-carboxyethyl)phosphine hydrochloride solution (TCEP) were purchased from Sigma-Aldrich at the highest level of purity possible. ^3H-SAM was purchase from American Radiolabeled Chemicals with a specific activity of 80 Ci/mmol. 384-well streptavidin Flashplates were purchased from PerkinElmer.
Substrates. Peptide representative of human histone H3 residues 16-30 was synthesized with an N-terminal linker-affinity tag motif and a C-terminal amide cap by 21st Century Biochemicals.
Protein Expression. Recombinant baculovirus were generated according to Bac-to-Bac kit instructions (Life Technologies). […] Infections were carried out at 37° C. for 48 hours, harvested by centrifugation, and stored at −80° C. for purification.
Protein Purification. […] Column was washed with 500 mM NaCl in buffer A and Flag-CARM1-His was eluted with 200 ug/ml FLAG peptide in buffer A. Pooled fractions were dialyzed in 20 mM Tris, 150 mM NaCl, 5% glycerol and 1 mM DTT, pH 7.8.
General Procedure for CARM1 Enzyme Assays on Peptide Substrates. The assays were all performed in a buffer consisting of 20 mM Bicine (pH=7.6), 1 mM TCEP, 0.005% BSG, and 0.002% Tween 20, prepared on the day of use. […] DMSO (1 ul) was added to Columns 11, 12, 23, 24, rows A-H for the maximum signal control and 1 ul of SAH, a known product and inhibitor of CARM1, was added to columns 11, 12, 23, 24, rows I-P for the minimum signal control. A cocktail (40 ul) containing the CARM1 enzyme was added by Multidrop Combi (Thermo-Fisher). The compounds were allowed to incubate with CARM1 for 30 min at room temperature, then a cocktail (10 ul) containing ^3H-SAM and peptide was added to initiate the reaction (final volume=51 ul). […] The assays were stopped by the addition of non-radiolabeled SAM (10 ul) to a final concentration of 300 uM, which dilutes the ^3H-SAM to a level where its incorporation into the peptide substrate is no longer detectable. 50 ul of the reaction in the 384-well polypropylene plate was then transferred to a 384-well Flashplate and the biotinylated peptides were allowed to bind to the streptavidin surface for at least 1 hour before being washed once with 0.1% Tween20 in a Biotek ELx405 plate washer. The plates were then read in a PerkinElmer TopCount plate reader to measure the quantity of ^3H-labeled peptide bound to the Flashplate surface, measured as disintegrations per minute (dpm) or alternatively, referred to as counts per minute (cpm).
Where dpm=disintegrations per minute, cmpd=signal in assay well, and min and max are the respective minimum and maximum signal controls.
Where top and bottom are the normally allowed to float, but may be fixed at 100 or 0 respectively in a 3-parameter fit. The Hill Coefficient normally allowed to float but may also be fixed at 1 in a 3-parameter fit. Y is the % inhibition and X is the compound concentration.

A value given as a limit tells only on which side of the number the result lay.

On to `COCCn1cc(CN(C)CCN)c(-c2ccc(F)cc2)n1` [Compound 5], for which the 50% inhibitory concentration (IC50) (as a rule, the concentration at which inhibition is half-maximal) is over 10 µM.

Take `COCCn1ncc(CN(C)CCN)c1-c1ccc(F)cc1` [Compound 6]: the half-inhibitory concentration (IC50) is over 10 µM.

The compound `CCn1ncc(CN(C)CCNC)c1-c1ccc(F)cc1` [Compound 7] yielded a half-maximal inhibitory concentration (IC50) of 1.01 to 3 µM.

In the case of `CCn1cc(CN(C)CCNC)c(-c2ccc(F)cc2)n1` [Compound 8], the IC50 fell in the range of 3.01 to 10 µM.

For `CN(CCN)Cc1c[nH]nc1-c1ccc(Cl)cc1` [Compound 95], the IC50 fell in the range of 0.101 to 1 µM.

Compound `CN(CCN)Cc1c[nH]nc1-c1ccc(OCC(F)(F)F)cc1` [Compound 96] returned an IC50 of under 0.1 µM.

`CC(C)Oc1ccc(-c2n[nH]cc2CN(C)CCN)cc1F` [Compound 97] registered a half-maximal inhibitory concentration (IC50) of 0.101 to 1 µM.

The compound `CN(CCN)Cc1c[nH]nc1-c1ccc(C2CCOCC2)cc1` [Compound 98] displayed an IC50 of 0.101 to 1 µM.

`CN(CCN)Cc1c[nH]nc1-c1ccc(F)cc1F` [Compound 99] had an IC50 of 3.01 to 10 µM.

For the compound `CN(CCN)Cc1n[nH]cc1-c1ccc(C#N)cc1` [Compound 100], the half-inhibitory concentration (IC50) was in the range of 3.01 to 10 µM.

In the case of `CC(C)c1ccc(-c2c[nH]nc2CN(C)CCN)cc1` [Compound 101], the IC50 was in the range of 3.01 to 10 µM.

With `CN(CCN)Cc1n[nH]cc1-c1ccc(Cl)cc1` [Compound 102], the concentration for half-maximal inhibition (IC50) was 1.01 to 3 µM.

Take `CN(CCN)Cc1n[nH]cc1-c1ccc(C(F)(F)F)cc1` [Compound 103]: the IC50 lay within 1.01 to 3 µM.

As for `CN(CCN)Cc1n[nH]cc1-c1ccc(C2CC2)cc1` [Compound 104], the half-maximal inhibitory concentration (IC50) lay in the range of 1.01 to 3 µM.

Compound `CN(CCN)Cc1n[nH]cc1-c1ccc(OC(F)(F)F)cc1` [Compound 105] registered a 50% inhibitory concentration (IC50) of 3.01 to 10 µM.

On to `CN(CCN)Cc1c[nH]nc1-c1cc(F)ccc1Cl` [Compound 106], for which the IC50 was over 10 µM.

The compound `COc1ccc(-c2n[nH]cc2CN(C)CCN)c(F)c1` [Compound 107] yielded a 50% inhibitory concentration (IC50) of 1.01 to 3 µM.

Compound `Cc1ccc(-c2n[nH]cc2CN(C)CCN)c(F)c1` [Compound 108] displayed an IC50 of 1.01 to 3 µM.

`COc1ccccc1-c1n[nH]cc1CN(C)CCN` [Compound 109] returned a half-inhibitory concentration (IC50) of 3.01 to 10 µM.

In turn, `Cc1cc(C#N)ccc1-c1n[nH]cc1CN(C)CCN` [Compound 110] came in with a half-maximal inhibitory concentration (IC50) of 3.01 to 10 µM.

In turn, `CN(CCN)Cc1c[nH]nc1-c1cc(F)cc(F)c1` [Compound 111] showed an IC50 of 0.101 to 1 µM.

`CC(=O)c1cccc(-c2n[nH]cc2CN(C)CCN)c1` [Compound 112] registered a 50% inhibitory concentration (IC50) of 1.01 to 3 µM.

The compound `CN(CCN)Cc1cnn(CC(O)CO)c1-c1ccc(F)cc1` (stereo not shown) [Compound 113] showed an IC50 of over 10 µM.

For the compound `CN(CCN)Cc1c[nH]nc1-c1ccc(OC2CC2)cc1` [Compound 114], the concentration for half-maximal inhibition (IC50) is 0.101 to 1 µM.

`CC(O)c1ccc(-c2n[nH]cc2CN(C)CCN)cc1` (stereo not shown) [Compound 115] displayed a 50% inhibitory concentration (IC50) of 3.01 to 10 µM.

In turn, `CN(CCN)Cc1c[nH]nc1-c1ccc(C2CC2)cc1` [Compound 116] had a half-inhibitory concentration (IC50) of 1.01 to 3 µM.

`CN(CCN)Cc1c[nH]nc1-c1ccc(C(F)(F)F)c(Cl)c1` [Compound 117] showed an IC50 of 0.101 to 1 µM.

Take `CN(CCN)Cc1c[nH]nc1-c1ccc(Cl)c(F)c1` [Compound 118]: the 50% inhibitory concentration (IC50) fell in the range of 0.101 to 1 µM.

With `CN(CCN)Cc1n[nH]cc1-c1ccc(OC2CC2)cc1` [Compound 119], the concentration for half-maximal inhibition (IC50) fell in the range of 0.101 to 1 µM.

For `CN(CCN)Cc1c[nH]nc1-c1cc(F)cc(Cl)c1` [Compound 121], the IC50 lay in the range of 0.101 to 1 µM.

Compound `CN(CCN)Cc1c[nH]nc1-c1cccc(Cl)c1` [Compound 122] displayed a half-maximal inhibitory concentration (IC50) of 0.101 to 1 µM.

`CN(CCN)Cc1c[nH]nc1-c1cccc(Cl)c1F` [Compound 123] came in with an IC50 of 1.01 to 3 µM.

Consider `CN(CCN)Cc1c[nH]nc1-c1ccc(F)c(Cl)c1` [Compound 124], for which the IC50 was 0.101 to 1 µM.

In turn, `COc1ccc(-c2n[nH]cc2CN(C)CCN)cc1Cl` [Compound 125] returned an IC50 of 1.01 to 3 µM.

Regarding `Cc1ccc(-c2n[nH]cc2CN(C)CCN)cc1Cl` [Compound 126], the IC50 was 0.101 to 1 µM.

As for `COc1cc(Cl)cc(-c2n[nH]cc2CN(C)CCN)c1` [Compound 127], the concentration for half-maximal inhibition (IC50) is 1.01 to 3 µM.

For `CN(CCN)Cc1cn(CC2CCOCC2)nc1-c1ccc(F)cc1` [Compound 128], the IC50 is over 10 µM.

`Cc1c(F)cccc1-c1n[nH]cc1CN(C)CCN` [Compound 129] had a half-maximal inhibitory concentration (IC50) of 1.01 to 3 µM.

`COc1cccc(-c2n[nH]cc2CN(C)CCN)c1` [Compound 130]: the half-maximal inhibitory concentration (IC50) lay within 1.01 to 3 µM.

As to `Cc1cccc(-c2n[nH]cc2CN(C)CCN)c1` [Compound 131], the IC50 was 1.01 to 3 µM.

Turning to `CN(CCN)Cc1c[nH]nc1-c1ccc(Cl)cc1F` [Compound 132], the IC50 lay within 1.01 to 3 µM.

On to `Cc1cc(Cl)ccc1-c1n[nH]cc1CN(C)CCN` [Compound 133], for which the concentration for half-maximal inhibition (IC50) lay within 3.01 to 10 µM.

On to `COc1ccc(-c2n[nH]cc2CN(C)CCN)cc1F` [Compound 134], for which the IC50 is 1.01 to 3 µM.

The compound `CN(CCN)Cc1c[nH]nc1-c1ccc(C(F)(F)F)cc1Cl` [Compound 135] came in with an IC50 of over 10 µM.

The compound `CCNC(=O)c1ccc(-c2n[nH]cc2CN(C)CCN)cc1` [Compound 136] came in with a concentration for half-maximal inhibition (IC50) of 1.01 to 3 µM.

For `CN(CCN)Cc1c[nH]nc1-c1cc(Cl)cc(Cl)c1` [Compound 137], the 50% inhibitory concentration (IC50) is 0.101 to 1 µM.

In turn, `CN(CCN)Cc1n[nH]cc1-c1ccc(OC(F)F)cc1` [Compound 138] displayed an IC50 of 1.01 to 3 µM.

`CN(CCN1CCCC1)Cc1c[nH]nc1-c1ccc(C#N)cc1` [Compound 139]: the 50% inhibitory concentration (IC50) is over 10 µM.

Compound `CN(CCN)Cc1c[nH]nc1-c1ccccc1C#N` [Compound 140] showed a half-inhibitory concentration (IC50) of over 10 µM.

For the compound `CN(CCN)Cc1c[nH]nc1-c1ccc(C(F)(F)F)c(F)c1` [Compound 141], the IC50 is 1.01 to 3 µM.

Take `COc1cc(-c2n[nH]cc2CN(C)CCN)ccc1F` [Compound 142]: the IC50 was 1.01 to 3 µM.

For `CCN(CC)C(=O)c1ccc(-c2n[nH]cc2CN(C)CCN)cc1` [Compound 143], the IC50 is 3.01 to 10 µM.

Take `CC(C)Oc1ccc(-c2c[nH]nc2CN(C)CCN)cc1F` [Compound 144]: the 50% inhibitory concentration (IC50) is 3.01 to 10 µM.

`CN(CCN)Cc1n[nH]cc1-c1ccc(C2CCOCC2)cc1` [Compound 145] displayed a concentration for half-maximal inhibition (IC50) of 3.01 to 10 µM.

With `COc1ccc(-c2n[nH]cc2CN(C)CCN)c(Cl)c1` [Compound 146], the half-inhibitory concentration (IC50) was in the range of 3.01 to 10 µM.

Regarding `CN(CCN)Cc1c[nH]nc1-c1cc(C#N)ccc1Cl` [Compound 147], the IC50 was over 10 µM.

As to `CN(CCN)Cc1c[nH]nc1-c1ccc(C(F)(F)F)cc1F` [Compound 148], the IC50 was over 10 µM.

As for `CN(CCN)Cc1c[nH]nc1-c1cccc(N(C)C)c1` [Compound 149], the IC50 lay within 1.01 to 3 µM.

Take `CCOC(=O)c1cccc(-c2n[nH]cc2CN(C)CCN)c1` [Compound 150]: the IC50 lay within 1.01 to 3 µM.

`COc1cc(F)ccc1-c1n[nH]cc1CN(C)CCN` [Compound 151] came in with a concentration for half-maximal inhibition (IC50) of 3.01 to 10 µM.

Consider `Cc1cc(F)ccc1-c1n[nH]cc1CN(C)CCN` [Compound 152], for which the half-inhibitory concentration (IC50) lay within 3.01 to 10 µM.

`COc1ccc(-c2n[nH]cc2CN(C)CCN)cc1` [Compound 153] came in with an IC50 of 1.01 to 3 µM.

`COc1ccc(-c2n[nH]cc2CN(C)CCN)c(C(F)(F)F)c1` [Compound 154] displayed a half-inhibitory concentration (IC50) of over 10 µM.

On to `COc1ccc(-c2n[nH]cc2CN(C)CCN)c(C)c1` [Compound 155], for which the 50% inhibitory concentration (IC50) was over 10 µM.
